Series [1] can be described thus: in vitro. The conditions noted are these: rat, plasma.
Series [2] addresses T1, DOR (Mus musculus, UniProt P32300).
T1 construct: Male ICR mice under CO2 anesthesia were sacrificed by cervical dislocation and the vasa differentia removed; from tissue; host or cells: mouse vas deferens (ICR mice)
Put plainly: Mouse isolated vas deferens (MVD) functional assay. Format: cell-based. The conditions noted are these: for IC50: MVD (DOR) IC50 (nM), agonist activity, electrically stimulated tissue.

The target in series [3] is T2, NK1R (Cavia porcellus, UniProt P30547).
T2 construct: The longitudinal muscle with myenteric plexus (LMMP) was carefully separated from the circular muscle; from tissue; host or cells: guinea pig ileum longitudinal muscle with myenteric plexus
T2 sequence (P30547 whole entry): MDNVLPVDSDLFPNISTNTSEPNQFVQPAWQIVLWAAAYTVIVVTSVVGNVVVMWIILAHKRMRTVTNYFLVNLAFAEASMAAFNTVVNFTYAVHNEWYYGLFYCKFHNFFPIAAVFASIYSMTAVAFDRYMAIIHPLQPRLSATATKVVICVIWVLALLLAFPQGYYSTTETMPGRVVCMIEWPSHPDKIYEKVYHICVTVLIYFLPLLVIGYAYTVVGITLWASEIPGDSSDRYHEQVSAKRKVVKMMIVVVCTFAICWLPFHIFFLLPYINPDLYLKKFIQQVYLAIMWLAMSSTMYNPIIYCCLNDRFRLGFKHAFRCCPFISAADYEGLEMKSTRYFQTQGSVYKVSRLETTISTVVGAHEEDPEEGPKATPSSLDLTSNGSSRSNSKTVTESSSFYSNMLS
The experiment in a line: GPI/LMMP functional assay at NK1R (agonist and antagonist testing). Type of series: cell-based, guinea pig. The conditions noted are these: for Kb: antagonist activity, read-out: GPI/LMMP (NK1R) Ke (nM) ± S.E.M.; for GPI/LMMP (NK1R) Agonist: agonist activity at the concentration in the cell.

The test system of series [4] is rats (acute thermal pain, paw withdrawal reflex).
The subject of series [5] is MOR. Put plainly: Guinea pig isolated ileum (GPI) functional assay. Format: cell-based. The conditions noted are these: agonist activity, electrically stimulated tissue; read-out: GPI (MOR) IC50.
Series [6] has as its target DOR (Homo sapiens, UniProt P41143). Put plainly: Radioligand binding assay at δ opioid receptor. The procedure:
(§1) Binding affinities of these ligands were measured on radioligand binding assays. […] ([43]).

In series [7] the target is MOR. Put plainly: Radioligand binding assay at μ opioid receptor. The conditions noted are these: for Log[IC50±] (μ): log IC50 ± error; for Ki^μ/Ki^δ: ratio of binding affinities MOR/DOR. The procedure:
as §1

For series [8], the target named is rNK1 (Rattus norvegicus, UniProt P14600). The experiment in a line: Radioligand binding assay at rat NK1 receptor. The conditions noted are these: Ki^rNK1 (nM). The procedure: as §1
Chain of rNK1 (P14600 whole entry): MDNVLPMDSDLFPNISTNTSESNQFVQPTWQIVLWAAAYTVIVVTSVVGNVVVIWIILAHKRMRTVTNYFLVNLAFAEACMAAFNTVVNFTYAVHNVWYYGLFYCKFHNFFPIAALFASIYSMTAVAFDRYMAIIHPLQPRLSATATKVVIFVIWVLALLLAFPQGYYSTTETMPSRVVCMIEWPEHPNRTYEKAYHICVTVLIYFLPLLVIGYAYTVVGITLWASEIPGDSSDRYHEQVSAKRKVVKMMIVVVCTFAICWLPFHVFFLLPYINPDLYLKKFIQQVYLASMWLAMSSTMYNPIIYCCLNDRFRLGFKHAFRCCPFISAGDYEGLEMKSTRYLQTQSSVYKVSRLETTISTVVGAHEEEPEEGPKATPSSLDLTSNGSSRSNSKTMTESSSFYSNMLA
Series [9] has as its target T3, hNK1 (Homo sapiens, UniProt P25103).
T3 construct: expressed in transfected cells; host or cells: CHO
Put plainly: hNK1/CHO cell membrane radioligand binding assay ([3H]SP). The conditions noted are these: for Ki: Ki^hNK1 (nM), hNK1/CHO membranes, [3H]SP; for Ki^hNK1/Ki^rNK1: ratio human/rat NK1.

The subject of series [10] is mice (acute thermal pain, tail flick). Put plainly: Tail flick latency, 52° C. water bath, after intrathecal injection. Format: in vivo, mouse. On the technique in general: In hot-plate and tail-flick tests a longer latency is read as antinociception.
Method: Tail flick latencies were re-assessed at up to 8 time points after administration. […] Mice with baseline TFLs<3 s or >9 s were excluded from the study.
For both studies, maximal percent efficacy was calculated and expressed as: % Antinociception=100*(test latency after drug treatment−baseline latency)/(cutoff−baseline latency) Statistics: Between group data were analyzed by non-parametric two-way analysis of variance (ANOVA; post hoc. Neuman-Kuels) in FlashCalc (Dr. Michael H. Ossipov, University of Arizona, Tucson, Ariz., USA). Within group data were analyzed by non-parametric one-way analysis of variance (ANOVA; post hoc: Bonferroni) in FlashCalc (Dr. Michael H. Ossipov, University of Arizona, Tucson, Ariz., USA). Differences were considered to be significant if P≤0.05.

Where “and” joins values, the source holds several entries; their conditions need not be identical. Equal values may be shown once.

T3 sequence (P25103 whole entry): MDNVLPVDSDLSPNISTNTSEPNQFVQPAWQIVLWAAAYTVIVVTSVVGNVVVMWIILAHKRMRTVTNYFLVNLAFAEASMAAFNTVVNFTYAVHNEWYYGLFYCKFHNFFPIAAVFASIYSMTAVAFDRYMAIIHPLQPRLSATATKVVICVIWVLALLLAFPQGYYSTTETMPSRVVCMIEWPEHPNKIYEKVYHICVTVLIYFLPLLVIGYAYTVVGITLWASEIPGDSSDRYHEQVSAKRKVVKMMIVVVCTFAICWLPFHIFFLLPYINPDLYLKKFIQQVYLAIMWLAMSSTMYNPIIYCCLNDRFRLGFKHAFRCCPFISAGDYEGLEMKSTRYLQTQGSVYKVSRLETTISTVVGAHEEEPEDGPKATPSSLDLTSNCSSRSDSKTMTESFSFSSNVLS
Chain of DOR (Homo sapiens, UniProt P41143) (P41143 whole entry): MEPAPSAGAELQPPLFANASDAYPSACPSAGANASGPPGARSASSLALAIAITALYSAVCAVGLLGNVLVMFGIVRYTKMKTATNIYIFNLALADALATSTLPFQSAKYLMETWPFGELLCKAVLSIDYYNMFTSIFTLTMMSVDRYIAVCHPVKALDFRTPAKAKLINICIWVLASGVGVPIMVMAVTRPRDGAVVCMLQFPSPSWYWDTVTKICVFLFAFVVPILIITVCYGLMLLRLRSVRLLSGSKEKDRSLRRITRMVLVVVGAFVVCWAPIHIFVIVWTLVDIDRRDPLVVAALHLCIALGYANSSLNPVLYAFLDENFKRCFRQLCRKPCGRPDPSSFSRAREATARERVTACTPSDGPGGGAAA
T1 sequence (P32300 whole entry): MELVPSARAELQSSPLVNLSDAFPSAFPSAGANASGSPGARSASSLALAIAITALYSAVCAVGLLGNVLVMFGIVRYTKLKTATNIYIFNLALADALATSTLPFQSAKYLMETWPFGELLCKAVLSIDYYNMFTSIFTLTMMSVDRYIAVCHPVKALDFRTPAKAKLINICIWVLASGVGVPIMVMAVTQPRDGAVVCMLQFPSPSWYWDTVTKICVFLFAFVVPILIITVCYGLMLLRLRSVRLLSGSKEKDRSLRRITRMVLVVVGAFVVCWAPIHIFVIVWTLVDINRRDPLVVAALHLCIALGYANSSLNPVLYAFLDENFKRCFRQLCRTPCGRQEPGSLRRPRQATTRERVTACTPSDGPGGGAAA

What is called half-life is the time in which the quantity being followed falls by half. A word on the IC50: it is the concentration at which inhibition is half-maximal. A word on the Ki: it is the equilibrium dissociation constant of an inhibitor or competing ligand from its target. The low end stands for higher affinity, the high end for lower affinity. For `Cc1cc(O)cc(C)c1C[C@H](N)C(=O)N[C@H](C)C(=O)NCC(=O)N(C)[C@@H](Cc1ccccc1)C(=O)N1CCC[C@H]1C(=O)N[C@@H](CC(C)C)C(=O)N[C@@H](Cc1c[nH]c2ccccc12)C(=O)NCc1cc(C(F)(F)F)cc(C(F)(F)F)c1` [AKG115, H-Dmt-D-Ala-Gly-NMePhe-Pro-Leu-Trp-NH-Bn(3′,5′-(CF3)2)], in [1], the half-life was > 24 h. Moreover, the IC50 in series [2] is 30.7 ± 7.5 nM; in [5] it was 0.021 µM and 0.0206 µM; in series [6] it was 0.012 µM. For the same molecule, the Kb in [3] was 9.7 nM. Further, in series [4] (0.1 μg i.t.), the “maximal level of antinociception” value is recorded as “minimal”. The motor skills entry in [4] (10 μg in 5 μl) is on record as “motor skills were impaired”. Moreover, in [4] (spinal 0.1 μg in 5 μL, 60 min after the injection), the “Paw withdrawal latencies (PWLs)” value is “not significantly higher than vehicle-treated rats and baseline values”. For the same molecule, in [7], affinity was put at a Ki of 0.001 µM. Also, in series [7], the “Log[IC50±] (μ)” value is reported as −8.78 ± 0.05.
With `Cc1cc(O)cc(C)c1C[C@H](N)C(=O)N[C@H](C)C(=O)NCC(=O)N[C@@H](Cc1ccc(F)cc1)C(=O)N1CCC[C@H]1C(=O)N[C@@H](CC(C)C)C(=O)N[C@@H](Cc1c[nH]c2ccccc12)C(=O)NCc1cc(C(F)(F)F)cc(C(F)(F)F)c1` [AKG127, H-Dmt-D-Ala-Gly-Phe(4-F)-Pro-Leu-Trp-NH-Bn(3′,5′-(CF3)2)], in series [1], the half-life was > 24 h. Also, in series [2], the “higher agonist activity at DOR compared to MOR (functional assays)” value amounted to 21 times; the IC50 was 1.9 nM and 1.96 nM. For the same molecule, in series [3], the “GPI/LMMP (NK1R) Agonist” value was “None at 30 nM” and the Kb was 5.3 nM. The affinity in series [8], expressed as Ki, was 29.4 ± 1.5 nM. Also, in [9], the Ki is 1 nM and the “Ki^hNK1/Ki^rNK1” value is listed as 1/33. Further, in series [5], the IC50 was 0.042 µM and 0.0416 µM. Also, in [10] (0.1 μg i.t.), the “maximal level of antinociception (% antinociception)” value is listed as “approximately 70%”. In series [10] (0.1 μg in 5 μl, i.t., 60 min after injection), the “tail flick latencies (TFLs)” value was “significantly higher than vehicle-treated mice and baseline values”. Also, in [7], the affinity corresponds to a Ki of 0.001 µM, the “Log[IC50±] (μ)” value is −8.72 ± 0.08 and the “Ki^μ/Ki^δ” value is recorded as 1/1.
As for `CC(C)C[C@H](NC(=O)[C@@H]1CCCN1C(=O)[C@H](Cc1ccc(F)cc1)NC(=O)CNC(=O)[C@@H](C)NC(=O)[C@@H](N)Cc1ccc(O)cc1)C(=O)N[C@@H](Cc1c[nH]c2ccccc12)C(=O)NCc1cc(C(F)(F)F)cc(C(F)(F)F)c1` [AKG190, H-Tyr-D-Ala-Gly-Phe(4-F)-Pro-Leu-Trp-NH-Bn(3′,5′-(CF3)2)], the half-life in series [1] was < 2 h. Also, in series [2], the “higher agonist activity at DOR compared to MOR (functional assays)” value is on record as 5 times and the IC50 turned out to be 12.1 ± 4 nM. In series [3], the “GPI/LMMP (NK1R) Agonist” value is listed as “None at 30 nM”. Moreover, in series [9], the Ki was found to be 5.61 ± 0.65 nM and the “Ki^hNK1/Ki^rNK1” value is 1/6. The IC50 in series [5] is 0.065 µM and 0.0648 µM. Besides, the “binding selectivity for DOR over MOR” value in [6] is recorded as 20 times. Besides, affinity in series [6] (Ki^δ (nM)) was put at a Ki of 0.2 nM. In addition, in series [7], affinity was put at a Ki of 0.004 µM, the “Log[IC50±] (μ)” value was −8.08 ± 0.10 and the “Ki^μ/Ki^δ” value is on record as 20/1.

Values taken from patent publication US11141452B2, “Bifunctional compounds for relief of pain comprising an opioid receptor agonist moiety and a NK1 receptor antagonist moiety and methods for treating pain” (THE ARIZONA BOARD OF REGENTS ON BEHALF OF THE UNIVERSITY OF …, priority 2014, dated 2021).
